The target in this test is T1, rat P2X3 receptor (Rattus norvegicus, UniProt P49654).
T1 construct: expressed in transfected cells; host or cells: CHO-K1
T1 sequence (P49654 1-397): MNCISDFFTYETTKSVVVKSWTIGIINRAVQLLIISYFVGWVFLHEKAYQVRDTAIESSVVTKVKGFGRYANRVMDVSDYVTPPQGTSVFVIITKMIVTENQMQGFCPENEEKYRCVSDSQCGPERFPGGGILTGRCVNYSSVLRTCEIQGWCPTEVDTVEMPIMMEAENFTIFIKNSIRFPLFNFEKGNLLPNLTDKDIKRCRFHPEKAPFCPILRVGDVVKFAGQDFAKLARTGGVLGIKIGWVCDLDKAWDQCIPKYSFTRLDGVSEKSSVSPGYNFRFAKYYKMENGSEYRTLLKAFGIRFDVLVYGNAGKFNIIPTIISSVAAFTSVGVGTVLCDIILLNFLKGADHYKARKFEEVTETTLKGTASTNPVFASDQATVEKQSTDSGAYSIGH
Nature of the test: P2X3 FLIPR (Fluorometric Imaging Plate Reader) assay. It counts as cell-based. The following applies: CHO-K1 cells transfected with cloned rat P2X3, agonist α,β-meATP 1 μM, Fluo-3 AM calcium fluorescence; for IC50: read-out: P2X3 (pIC50 values for the P2X3 receptor) (converted). As to the method: CHO-K1 cells were transfected with cloned rat P2X3 or human P2X2/3 receptor subunits and passaged in flasks. 18-24 hours before the FLIPR experiment, cells were released from their flasks, centrifuged, and resuspended in nutrient medium at 2.5×10^5 cells/ml. The cells were aliquoted into black-walled 96-well plates at a density of 50,000 cells/well and incubated overnight in 5% CO2 at 37° C. On the day of the experiment, cells were washed in FLIPR buffer (calcium- and magnesium-free Hank's balanced salt solution, 10 mM HEPES, 2 mM CaCl2, 2.5 mM probenecid; FB). Each well received 100 μl FB and 100 μl of the fluorescent dye Fluo-3 AM [2 μM final conc.]. After a 1 hour dye loading incubation at 37° C., the cells were washed 4 times with FB, and a final 75 μl/well FB was left in each well.
Test compounds (dissolved in DMSO at 10 mM and serially diluted with FB) or vehicle were added to each well (25 μl of a 4× solution) and allowed to equilibrate for 20 minutes at room temperature. The plates were then placed in the FLIPR and a baseline fluorescence measurement (excitation at 488 nm and emission at 510-570 nm) was obtained for 10 seconds before a 100 μl/well agonist or vehicle addition. The agonist was a 2X solution of α,β-meATP producing a final concentration of 1 μM (P2X3) or 5 μM (P2X2/3). Fluorescence was measured for an additional 2 minutes at 1 second intervals after agonist addition. A final addition of ionomycin (5 μM, final concentration) was made to each well of the FLIPR test plate to establish cell viability and maximum fluorescence of dye-bound cytosolic calcium. Peak fluorescence in response to the addition of α,β-meATP (in the absence and presence of test compounds) was measured and inhibition curves generated using nonlinear regression. PPADS, a standard P2X antagonist, was used as a positive control.

Molecules are shown by their SMILES.

Results on 26 compounds are retold here after patent US9505726B2, “Substituted biphenyl amides as P2X3 and P2X2/3 antagonists” (Roche Palo Alto LLC, priority 2009, dated 2016).

Take `CCN(C(=O)c1cnccn1)c1cc(C(=O)NC(C)c2cnccn2)cc(-c2ccc(C)cc2)c1` (centres unmarked) [Compound 27, Pyrazine-2-carboxylic acid ethyl-[4′-methyl-5-(1-pyrazin-2-yl-ethylcarbamoyl)-biphenyl-3-yl]-amide]: the IC50 is 4470 nM.
`CCN(C(=O)c1ccncc1)c1cc(C(=O)NC(C)COC)cc(-c2ccc(C)cc2)c1` (centres unmarked) [Compound 28, N-Ethyl-N-[5-(2-methoxy-1-methyl-ethylcarbamoyl)-4′-methyl-biphenyl-3-yl]-isonicotinamide]: the “P2X3 (pIC50 values for the P2X3 receptor)” value worked out at 5.4.
Take `CCN(C(=O)CC(C)C)c1cc(C(=O)NC(C)c2cnccn2)cc(-c2ccc(C)cc2)c1` (centres unmarked) [Compound 29, 5-[Ethyl-(3-methyl-butyryl)-amino]-4′-methyl-biphenyl-3-carboxylic acid (1-pyrazin-2-yl-ethyl)-amide]: the “P2X3 (pIC50 values for the P2X3 receptor)” value stood at 7.38.
Regarding `CCN(C(=O)CC(C)C)c1cc(C(=O)NC(C)CO)cc(-c2ccc(C)cc2)c1` (centres unmarked) [Compound 30, 5-[Ethyl-(3-methyl-butyryl)-amino]-4′-methyl-biphenyl-3-carboxylic acid (2-hydroxy-1-methyl-ethyl)-amide], the “P2X3 (pIC50 values for the P2X3 receptor)” value came to 7.33.
Same read-out and setting: under `CCN(C(=O)c1cccnc1)c1cc(C(=O)NC(C)c2cnccn2)cc(-c2ccc(C)cc2)c1` (centres unmarked) [Compound 31, N-Ethyl-N-[4′-methyl-5-(1-pyrazin-2-yl-ethylcarbamoyl)-biphenyl-3-yl]-nicotinamide] stands 5.91; under `Cc1ccc(-c2cc(C(=O)NC(C)c3cnccn3)cc(N(C)C(=O)C(C)(C)C)c2)cc1` (centres unmarked) [Compound 32, 5-[(2,2-Dimethyl-propionyl)-methyl-amino]-4′-methyl-biphenyl-3-carboxylic acid (1-pyrazin-2-yl-ethyl)-amide], 8.01; under `Cc1ccc(-c2cc(C(=O)NC(C)c3cnccn3)cc(N(C)C(=O)C(C)C)c2)cc1` (centres unmarked) [Compound 33, 5-(Isobutyryl-methyl-amino)-4′-methyl-biphenyl-3-carboxylic acid (1-pyrazin-2-yl-ethyl)-amide], 8.3.
Take `Cc1ccc(-c2cc(C(=O)NC(C)c3cnccn3)cc(N(C)C(=O)C3CC3)c2)cc1` (centres unmarked) [Compound 34, 5-(Cyclopropanecarbonyl-methyl-amino)-4′-methyl-biphenyl-3-carboxylic acid (1-pyrazin-2-yl-ethyl)-amide]: the IC50 is 10.7 nM.
For the compound `CCN(C(=O)OCC(C)C)c1cc(C(=O)NC(C)c2cnccn2)cc(-c2ccc(C)cc2)c1` (centres unmarked) [Compound 35, Ethyl-[4′-methyl-5-(1-pyrazin-2-yl-ethylcarbamoyl)-biphenyl-3-yl]-carbamic acid isobutyl ester], the “P2X3 (pIC50 values for the P2X3 receptor)” value is 6.82.
As to `Cc1ccc(-c2cc(C(=O)NC(C)c3cnccn3)cc(N(C)C(=O)c3snnc3C)c2)cc1` (centres unmarked) [Compound 36, 4-Methyl-[1,2,3]thiadiazole-5-carboxylic acid methyl-[4′-methyl-5-(1-pyrazin-2-yl-ethylcarbamoyl)-biphenyl-3-yl]-amide], the “P2X3 (pIC50 values for the P2X3 receptor)” value is 5.3.
On to `CCN(C(=O)C(C)C)c1cc(C(=O)NC(C)c2cnccn2)cc(-c2ccc(C)cc2)c1` (centres unmarked) [Compound 38, 5-(Ethyl-isobutyryl-amino)-4′-mcthyl-biphenyl-3-carboxylic acid (1-pyrazin-2-yl-ethyl)-amide], for which the “P2X3 (pIC50 values for the P2X3 receptor)” value is recorded as 8.11.
In the case of `CCN(C(=O)OC)c1cc(C(=O)NC(C)c2cnccn2)cc(-c2ccc(C)cc2)c1` (centres unmarked) [Compound 39, Ethyl-[4′-methyl-5-(1-pyrazin-2-yl-ethylcarbamoyl)-biphenyl-3-yl]-carbamic acid methyl ester], the “P2X3 (pIC50 values for the P2X3 receptor)” value is 7.28.
Still for that read-out and setting: with `Cc1ccc(-c2cc(C(=O)N[C@@H](C)CO)cc(N(C)C(=O)C(C)C)c2)cc1` [Compound 40, 5-(Isobutyryl-methyl-amino)-4′-methyl-biphenyl-3-carboxylic acid ((S)-2-hydroxy-1-methyl-ethyl)-amide] the figure was 8.3.
As to `CCN(C(=O)C1CCOCC1)c1cc(C(=O)NC(C)c2cnccn2)cc(-c2ccc(C)cc2)c1` (centres unmarked) [Compound 41, Tetrahydro-pyran-4-carboxylic acid ethyl-[4′-methyl-5-(1-pyrazin-2-yl-ethylcarbamoyl)-biphenyl-3-yl]-amide], the “P2X3 (pIC50 values for the P2X3 receptor)” value was determined as 6.86.
With `Cc1ccc(-c2cc(NC(=O)C(C)C)cc(C(=O)NC(C)c3cnccn3)c2)cc1` (centres unmarked) [Compound 42, 5-Isobutyrylamino-4′-methyl-biphenyl-3-carboxylic acid (1-pyrazin-2-yl-ethyl)-amide], the “P2X3 (pIC50 values for the P2X3 receptor)” value is recorded as 5.53.
`Cc1ccc(-c2cc(C(=O)NC(C)c3cnccn3)cc(N(C)C(=O)C3CCOCC3)c2)cc1` (centres unmarked) [Compound 43, Tetrahydro-pyran-4-carboxylic acid methyl-[4′-methyl-5-(1-pyrazin-2-yl-ethylcarbamoyl)-biphenyl-3-yl]-amide]: the “P2X3 (pIC50 values for the P2X3 receptor)” value is 5.86.
Turning to `CC(NC(=O)c1cc(-c2ccc(Cl)cc2)cc(N(C)C(=O)N2CCOCC2)c1)c1cnccn1` (centres unmarked) [Compound 44, Morpholine-4-carboxylic acid [4′-chloro-5-(1-pyrazin-2-yl-ethylcarbamoyl)-biphenyl-3-yl]-methyl-amide], the “P2X3 (pIC50 values for the P2X3 receptor)” value is on record as 5.17.
Still for that read-out and setting: under `CCNC(=O)N(C)c1cc(C(=O)NC(C)c2cnccn2)cc(-c2ccc(Cl)cc2)c1` (centres unmarked) [Compound 45, 4′-Chloro-5-(3-ethyl-1-methyl-ureido)-biphenyl-3-carboxylic acid (1-pyrazin-2-yl-ethyl)-amide] stands 5.38; under `CCC(C)C(=O)N(C)c1cc(C(=O)NC(C)c2cnccn2)cc(-c2ccc(C)cc2)c1` (centres unmarked) [Compound 46, 4′-Methyl-5-[methyl-(2-methyl-butyryl)-amino]-biphenyl-3-carboxylic acid (1-pyrazin-2-yl-ethyl)-amide], 8.04.
For `CCC(C)(C)C(=O)N(C)c1cc(C(=O)NC(C)c2cnccn2)cc(-c2ccc(C)cc2)c1` (centres unmarked) [Compound 48, 5-[(2,2-Dimethyl-butyryl)-methyl-amino]-4′-methyl-biphenyl-3-carboxylic acid (1-pyrazin-2-yl-ethyl)-amide], the “P2X3 (pIC50 values for the P2X3 receptor)” value stood at 7.55.
Regarding `CCN(C(=O)C(C)C)c1cc(C(=O)N[C@@H](C)CO)cc(-c2ccc(C)cc2)c1` [Compound 49, 5-(Ethyl-isobutyryl-amino)-4′-methyl-biphenyl-3-carboxylic acid ((S)-2-hydroxy-1-methyl-ethyl)-amide], the “P2X3 (pIC50 values for the P2X3 receptor)” value is listed as 8.38.
On to `Cc1ccc(-c2cc(C(=O)N[C@@H](C)CO)cc(N(C)C(=O)C3CCCC3)c2)cc1` [Compound 50, 5-(Cyclopentanecarbonyl-methyl-amino)-4′-methyl-biphenyl-3-carboxylic acid ((S)-2-hydroxy-1-methyl-ethyl)-amide], for which the “P2X3 (pIC50 values for the P2X3 receptor)” value turned out to be 7.85.
Still for that read-out and setting: with `Cc1ccc(-c2cc(C(=O)NC(C)c3cnccn3)cc(N(C)C(=O)C3CCCC3)c2)cc1` (centres unmarked) [Compound 51, 5-(Cyclopentanecarbonyl-methyl-amino)-4′-methyl-biphenyl-3-carboxylic acid (1-pyrazin-2-yl-ethyl)-amide] the figure was 7.57; with `Cc1ccc(-c2cc(C(=O)NC(C)c3cnccn3)cc(N(C)C(=O)C3CCCCC3)c2)cc1` (centres unmarked) [Compound 52, 5-(Cyclohexanecarbonyl-methyl-amino)-4′-methyl-biphenyl-3-carboxylic acid (1-pyrazin-2-yl-ethyl)-amide], 5.9; with `CCC(C)C(=O)N(C)c1cc(C(=O)N[C@@H](C)CO)cc(-c2ccc(C)cc2)c1` (stereo partly drawn) [Compound 53, 4′-Methyl-5-[methyl-(2-methyl-butyryl)-amino]-biphenyl-3-carboxylic acid ((S)-2-hydroxy-1-methyl-ethyl)-amide], 7.37.
For `Cc1ccc(-c2cc(C(=O)NC(C)c3cnccn3)cc(N(C)C(=O)C(C)C)c2)c(Cl)c1` (centres unmarked) [Compound 54, 2′-Chloro-5-(isobutyryl-methyl-amino)-4′-methyl-biphenyl-3-carboxylic acid (1-pyrazin-2-yl-ethyl)-amide], the “P2X3 (pIC50 values for the P2X3 receptor)” value amounted to 6.29.
